# How the values were obtained:
# [1] = test system: Lung; test: Barcoded pooled LNP biodistribution screen, fold above input (FAI) in lung; format: in vivo; settings: pooled LNP IV tail vein, mice, 4 hours post-dose
# Description: (§1) Male and female mice aged approximately 8-12 weeks were used for studies described by the present Example. Each mouse was temporarily restrained and pooled LNP was administered IV via tail vein injection in up to five animals per experiment. Age-matched mice was also used to administer vehicle (1×TBS) via tail vein injection in up to three animals per experiment. Additional routes of administration can also be conducted including intracerebral ventricular (ICV), intracisterna manga (ICM), intrathecal (IT), intramuscular (IM), nebulization, intranasal (IN), subcutaneous (SC), intraarticular, and intradermal (ID). At 4 hours post-dose, tissues including liver, spleen, bone marrow, testes, gastrocnemius, quadricep, lung, heart, kidney, and pancreas may be collected for analysis.
# Liver, kidney, lung, and muscle (e.g. skeletal and cardiac) tissues may be mechanically, and then enzymatically digested using a mixture of proteinases, then passed through a 70 μm filter to generate single cell suspensions. Spleen tissues were mechanically digested to generate single cell suspensions. Tissues were treated with ACK buffer to lyse red blood cells, and then stained with fluorescently labeled antibodies for flow cytometry and fluorescence-activated cell sorting (FACS). Commercially available antibodies were used in the present example. Using a BD FACSMelody (Becton Dickinson), samples were acquired via flow cytometry to generate gates prior to sorting. In general, the gating structure was size→singlet cells→live cells→cells of interest. T cells were defined as CD45+CD3+, monocytes are defined as CD45+CD11b+, and B cells are defined as CD45+CD19+. Endothelial cells were defined as CD31+, monocytes and Kupffer cells as CD45+CD11b+ and hepatocytes and myocytes were defined as CD31−/CD45− in the liver and muscle, respectively. Tissues from vehicle-dosed mice were used to set the gates for sorting.
# RNA from tissues were extracted using the Reliaprep RNA extraction kit, and libraries were prepared using the RNAseq kit, and sequenced on either a MiSeq or NextSeq500.
# (§2) To screen for preferential LNP delivery to a target tissues, the relative abundance of each barcode in one or more target tissues was measured and compared to the relative abundance of each barcode to its corresponding relative input abundance to determine fold above input (FAI) for each barcode. […]
# (§3) The FAI is the normalized relative abundance of a barcode in a selected sample as compared to its frequency in the input. […] The FAI value of the barcode was calculated by normalizing the relative abundance in the barcode sequence counts in the isolated samples to its relative abundance in the administration input. […]
# [2] = test system: Spleen; test: Barcoded pooled LNP biodistribution screen, fold above input (FAI) in spleen; format: in vivo; settings: pooled LNP IV tail vein, mice, 4 hours post-dose
# Description: as §1
# (§4) Liver, kidney, lung, and muscle (e.g. skeletal and cardiac) tissues may be mechanically, and then enzymatically digested using a mixture of proteinases, then passed through a 70 μm filter to generate single cell suspensions. Spleen tissues were mechanically digested to generate single cell suspensions. Tissues were treated with ACK buffer to lyse red blood cells, and then stained with fluorescently labeled antibodies for flow cytometry and fluorescence-activated cell sorting (FACS). Commercially available antibodies were used in the present example. Using a BD FACSMelody (Becton Dickinson), samples were acquired via flow cytometry to generate gates prior to sorting. […]
# as §2, §3
# [3] = test system: Liver; test: Barcoded pooled LNP biodistribution screen, fold above input (FAI) in liver; format: in vivo; settings: pooled LNP IV tail vein, mice, 4 hours post-dose
# Description: as §1, §4, §2, §3
# [4] = LNP hydrodynamic diameter and polydispersity index by dynamic light scattering (DLS); format: physicochemical; settings: LNP: 47.5% ionizable lipid, 40% cholesterol, 2.5% PEG-2000 DMG, 10% DPSC, N/P 4-8
# Description: (§5) LNPs were prepared with 47.5% Ionizable Lipid (e.g., a compound provided herein): 40% cholesterol: 2.5% PEG-2000 DMG; and 10% DPSC and an N/P ratio range of 4-8. LNPs were formed by microfluidic mixing of the lipid and NA solutions using a Precision Nanosystems NanoAssemblr Spark or Benchtop series Instruments, according to the manufacturers protocol. A ratio of aqueous to organic solvent of approximately 2:1 or 3:1 was maintained during mixing using differential flow rates. After mixing, LNPs were collected, diluted in phosphate buffer saline (PBS) or Tris-buffered saline (TBS) (approximately 1:1 v/v). Further buffer exchange was conducted using dialysis in PBS or TBS at 4° C. for 4 to 24 hours against a 20 kDa filter. After this initial dialysis, each individual LNP preparation was characterized via dynamic light scattering (DLS) to measure the size (e.g., diameter) and polydispersity. LNPs falling within specific diameter and polydispersity ranges were pooled, and further dialyzed against PBS or TBS at 4° C. for 1 to 4 hours against a 100 kDa dialysis cassette. After the second dialysis, LNPs were sterile filtered using 0.22 μm filter and stored at 4° C. for further use.
# LNP hydrodynamic diameter and polydispersity index (PDI) were measured using high throughput dynamic light scattering (DLS) (Stunner, Unchained Labs). LNPs were diluted 1×TBS or PBS to an appropriate concentration and analyzed.
# [5] = LNP encapsulation efficiency by Ribogreen assay; format: physicochemical; settings: LNP: 47.5% ionizable lipid, 40% cholesterol, 2.5% PEG-2000 DMG, 10% DPSC, N/P 4-8
# Description: as §5
# RNA concentration and encapsulation efficiency were determined by Ribogreen assay (BioTek Synergy LX plate reader).
# [6] = screening experiment of Table 4
# [7] = screening experiment of Table 5
# [8] = screening experiment of Table 6
Mean Diameter (nm) [4] [nm],Mean PDI [4],Mean Encapsulation Efficiency (%) [5] [%],further results,Compound
,,,"FAI (Lung) ([1]; screening experiment of Table 3): 0.50; FAI (Lung) [1, 6]: 0.86; FAI (Lung) [1, 7]: 1.51; FAI (Lung) [1, 8]: 1.68; FAI (Spleen) [2, 6]: 1.57; FAI (Spleen) [2, 7]: 0.61; FAI (Spleen) [2, 8]: 1.50; FAI (Liver) [3, 6]: 1.00; FAI (Liver) [3, 7]: 0.30; FAI (Liver) [3, 8]: 0.73",CCCCC/C=C\C/C=C\CCCCCCCCC(CCCCCCCC/C=C\C/C=C\CCCCC)OC(=O)CCCN(C)C [MC3]
92.9,0.14,90.0,,"CC/C=C\CCCCOC(CCC(=O)OCC(COC(=O)CCCCCCC/C=C\C/C=C\CCCCC)(COC(=O)CCCCCCC/C=C\C/C=C\CCCCC)COC(=O)OCC1CCCN(CC)C1)OCCCC/C=C\CC (stereo not shown) [Compound 7-68, 2-(((4,4-bis(((Z)-oct-5-en-1-yl)oxy)butanoyl)oxy)methyl)-2-(((((1-ethylpiperidin-3-yl)methoxy)carbonyl)oxy)methyl)propane-1,3-diyl (9Z,9′Z,12Z,12′Z)-bis(octadeca-9,12-dienoate)]"
108.5,0.07,79.9,,"CCCCC/C=C\CCOC(=O)CCCCCCC(=O)OCC(COC(=O)CCCCCCC(=O)OCC/C=C\CCCCC)(COC(=O)CCCCCCC(=O)OCC/C=C\CCCCC)COC(=O)NCCN1CCCC1 [Compound 7-16, 8,8′-di((Z)-non-3-en-1-yl) O′1,O1-(2-(((8-(((Z)-non-3-en-1-yl)oxy)-8-oxooctanoyl)oxy)methyl)-2-((((2-(pyrrolidin-1-yl)ethyl)carbamoyl)oxy)methyl)propane-1,3-diyl) di(octanedioate)]"
126.0,0.08,77.1,,"CCCCC/C=C\CCOC(=O)CCCCCC(=O)OCC(COC(=O)CCCCCC(=O)OCC/C=C\CCCCC)(COC(=O)CCCCCC(=O)OCC/C=C\CCCCC)COC(=O)CCCN1CCCC1 [Compound 7-51, 7,7′-di((Z)-non-3-en-1-yl) O′1,O1-(2-(((7-(((Z)-non-3-en-1-yl)oxy)-7-oxoheptanoyl)oxy)methyl)-2-(((4-(pyrrolidin-1-yl)butanoyl)oxy)methyl)propane-1,3-diyl) di(heptanedioate)]"
87.2,0.12,88.8,,"CC/C=C\CCCCOC(CCC(=O)OCC(COC(=O)CCCCCCCOC(=O)C(CCCC)CCCCCC)(COC(=O)CCCCCCCOC(=O)C(CCCC)CCCCCC)COC(=O)NCCN1CCCC1)OCCCC/C=C\CC (stereo not shown) [Compound 7-66, 2-(((4,4-bis(((Z)-oct-5-en-1-yl)oxy)butanoyl)oxy)methyl)-2-((((2-(pyrrolidin-1-yl)ethyl)carbamoyl)oxy)methyl)propane-1,3-diyl bis(8-((2-butyloctanoyl)oxy)octanoate)]"
79.6,0.14,87.8,,CC/C=C\CCCCOC(CCC(=O)OCC(COC(=O)CCCCCCCOC(=O)C(CCCC)CCCCCC)(COC(=O)CCCCCCCOC(=O)C(CCCC)CCCCCC)COC(=O)OCCCN(C)CC)OCCCC/C=C\CC (stereo not shown) [Compound 7-63]

# — US20240358841A1, “NANOMATERIALS COMPRISING TETRAVALENT LIPID COMPOUNDS” (Beam Therapeutics Inc., priority 2021, published 2024)
